Data on eight compounds can be found in patent publication US6743809B2, “Indole Derivatives useful for the treatment of CNS disorders” (H. Lundbeck A/S, priority 2000, dated 2004).

Test [1] has as its target T1, human cloned dopamine D4.2 receptors (Homo sapiens, UniProt P21917, DEL265-296).
T1 construct: expressed in transfected cells; host or cells: CHO cells
T1 sequence (P21917 with tags, fused parts or gaps DEL265-296): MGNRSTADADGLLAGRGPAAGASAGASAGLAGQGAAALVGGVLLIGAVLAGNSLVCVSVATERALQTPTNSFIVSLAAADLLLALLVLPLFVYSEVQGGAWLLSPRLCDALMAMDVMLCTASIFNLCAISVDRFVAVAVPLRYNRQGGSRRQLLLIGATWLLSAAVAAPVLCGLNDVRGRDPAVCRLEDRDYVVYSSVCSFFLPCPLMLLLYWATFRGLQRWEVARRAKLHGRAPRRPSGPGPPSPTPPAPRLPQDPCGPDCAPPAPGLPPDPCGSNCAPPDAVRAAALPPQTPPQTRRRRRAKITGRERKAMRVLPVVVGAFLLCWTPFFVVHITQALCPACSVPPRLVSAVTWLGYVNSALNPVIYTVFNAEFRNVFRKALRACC
In words: Inhibition of the binding of [3H]YM-09151-2 to human dopamine D4 receptors. The note with it: 50 nM compound; [3H]YM-09151-2 0.06 nM; membranes of CHO-cells. How it is done:
Inhibition of the Binding of [^3H]YM-09151-2 to Human Dopamine D4 Receptors
By this method, the inhibition by drugs of the binding of [^3H]YM-09151-2 (0.06 nM) to membranes of human cloned dopamine D4.2 receptors expressed in CHO-cells is determined in vitro. The method is modified from NEN Life Science Products, Inc., technical data certificate PC2533-10/96.

Test [2] concerns the target T2, D4 receptor (Homo sapiens, UniProt P21917).
T2 sequence (P21917 1-419): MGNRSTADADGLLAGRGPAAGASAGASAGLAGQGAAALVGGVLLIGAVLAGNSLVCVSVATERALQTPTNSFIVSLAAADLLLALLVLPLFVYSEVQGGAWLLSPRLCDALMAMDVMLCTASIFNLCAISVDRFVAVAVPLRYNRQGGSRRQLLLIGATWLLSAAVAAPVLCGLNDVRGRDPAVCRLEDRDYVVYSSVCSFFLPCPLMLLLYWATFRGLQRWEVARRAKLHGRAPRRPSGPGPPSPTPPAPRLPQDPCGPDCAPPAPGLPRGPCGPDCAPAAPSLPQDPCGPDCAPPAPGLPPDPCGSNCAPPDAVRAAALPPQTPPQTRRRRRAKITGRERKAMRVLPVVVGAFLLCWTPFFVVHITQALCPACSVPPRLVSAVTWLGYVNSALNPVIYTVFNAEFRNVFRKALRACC
The conditions noted are these: literature report, result in words; cited from earlier work.

In the case of `Cc1ccc(NC(=O)c2cnns2)cc1CCN1CCC(c2c[nH]c3c(Cl)cccc23)CC1` [Compound 4k, 3-[1-(2-{2-Methyl-5-[(1-[1,2,3]thiadiazol-5-ylmethanoyl)amino]phenyl}ethyl)piperidin-4-yl]-7-chloro-1H-indole], 0.05 µM produced 67% inhibition in test [1].

For `Cc1ccc(NC(=O)CCC2CCCCC2)cc1CCN1CCC(c2c[nH]c3ccc(F)cc23)CC1` [Compound 3ac, 3-(1-{2-[5-(3-Cyclohexylpropanoylamino)-2-methylphenyl]ethyl}piperidin-4-yl)-5-fluoro-1H-indole], testing at 0.05 µM in test [1] gave an inhibition of 97%.

Regarding `CC(C)Oc1cccnc1N(C)C1CCN(Cc2ccccc2)CC1` [Compound U-101958], the “functional activity at D4 receptor” value in test [2] is given as “partial D4 receptor agonists”.

On to `Cc1ccc(NC(=O)c2cccs2)cc1CCN1CCC(c2c[nH]c3ccc(Cl)cc23)CC1` [Compound 3b, 3-(1-{2-[2-Methyl-5-(thiophen-2-ylmethanoylamino)phenyl]ethyl}piperidin-4-yl)-5-chloro-1H-indole], for which the inhibition – broadly, the share of the control response that was lost under treatment – at 0.05 µM in test [1] stood at 86%.

In test [1], `Cc1ccc(NC(=O)C2CCOCC2)cc1CCN1CCC(c2c[nH]c3ccc(F)cc23)CC1` [Compound 3aa, 3-(1-{2-[2-Methyl-5-(tetrahydropyran-4-ylmethanoylamino)phenyl]ethyl}piperidin-4-yl)-5-fluoro-1H-indole] yielded an inhibition at 0.05 µM of 96%.

For `CC(=O)Nc1ccc(C)c(CCN2CCC(c3c[nH]c4ccc(F)cc34)CC2)c1` [Compound 3a, 3-(1-{2-[5-(Acetylamino)-2-methylphenyl]ethyl}piperidin-4-yl)-5-fluoro-1H-indole], 0.05 µM produced 83% inhibition in test [1].

In test [1], `COc1cccc(C(=O)Nc2ccc(C)c(CCN3CCC(c4c[nH]c5ccc(F)cc45)CC3)c2)c1` [Compound 3j, 3-(1-{2-[5-(3-Methoxybenzoylamino)-2-methylphenyl]ethyl}piperidin-4-yl)-5-fluoro-1H-indole] had an inhibition at 0.05 µM of 90%.

`Cc1ccc(NC(=O)Nc2ccc(F)cc2)cc1CCN1CCC(c2c[nH]c3ccc(F)cc23)CC1` [Compound 3y, 3-[1-(2-{5-[3-(4-Fluorophenyl)ureido]-2-methylphenyl}ethyl)piperidin-4-yl]-5-fluoro-1H-indole] showed an inhibition at 0.05 µM in test [1] of 83%.
